Data from patent publication US7943551B2, “3-cyclopropyl-4-(3-thiobenzoyl) pyrazoles and their use as herbicides” (Bayer Cropscience AG, priority 2007, dated 2011).

What was measured:
Type in all cases: in vivo
[1] = test system: Stellaria media; assay: Pre-emergence herbicidal action; conditions: 80 g of a.i./ha
Text: (§1) Seeds or rhizome pieces of mono- and dicotyledonous harmful plants are placed in sandy loam in pots of a diameter of 9 to 13 cm and covered with soil. The herbicides, formulated as emulsifiable concentrates or dusts, are applied to the surface of the covering soil in the form of aqueous dispersions or suspensions or emulsions at an application rate of 300 to 800 l of water/ha (converted), […] For further cultivation of the plants, the pots are then kept in a greenhouse under optimum conditions. The visual scoring of the damage to the harmful plants is carried out 3-4 weeks after the treatment. Here, the compounds of Nos. 1-3, 1-15, 1-44 and 1-1407 show an activity of at least 90% against Echinochloa crus galli. The compounds of Nos. 1-15, 1-45, 1-1407 and 1-1419 show an activity of at least 90% against Abutilon theophrasti. The compounds of Nos. 1-3, 1-45, 1-1406 and 1-1418 show an activity of at least 90% against Amaranthus retroflexus. The compounds of Nos. 1-44, 1-1406, 1-1407 and 1-1419 show an activity of at least 90% against Stellaria media.
(§2) The comparative tests of Tables 1 to 24 below show the superiority of the compounds according to the invention over the compounds known from the prior art.
(§3) • ABUTH Abutilon theophrasti ALOMY Alopecurus myosuroides • AMARE Amaranthus retroflexus AVEFA Avena fatua • CHEAL Chenopodium album ECHCG Echinochloa crus galli • GALAP Galium aparine LOLMU Lolium multiflorum • MATIN Matricaria inodora PHBPU Pharbitis purpureum • POLCO Fallopia convolvulus STEME Stellaria media • VERPE Veronica persica VIOTR Viola tricolor • XANST Xanthium strumarium Crop Plants • GLXMA Glycine max (soybeans) TRZAS Triticum aestivum (wheat) • ZEAMX Zea mays (corn)

[2] = test system: Veronica persica; assay: Pre-emergence herbicidal action; conditions: 80 g of a.i./ha
Text: as §1, §2, §3

[3] = test system: Matricaria inodora; assay: Pre-emergence herbicidal action; conditions: Tripleurospermum inodorum, read-out: Herbicidal activity in % against MATIN; for pest or weed control at 320 g/ha: 320 g of a.i./ha
Text: (§4) Seeds or rhizome pieces of mono- and dicotyledonous harmful plants are placed in sandy loam in pots of a diameter of 9 to 13 cm and covered with soil. The herbicides, formulated as emulsifiable concentrates or dusts, are applied to the surface of the covering soil in the form of aqueous dispersions or suspensions or emulsions at an application rate of 300 to 800 l of water/ha (converted), at a dosage of 320 grams per hectare. For further cultivation of the plants, the pots are then kept in a greenhouse under optimum conditions. The visual scoring of the damage to the harmful plants is carried out 3-4 weeks after the treatment. Here, the compounds of Nos. 1-3, 1-15, 1-44 and 1-1407 show an activity of at least 90% against Echinochloa crus galli. The compounds of Nos. 1-15, 1-45, 1-1407 and 1-1419 show an activity of at least 90% against Abutilon theophrasti. The compounds of Nos. 1-3, 1-45, 1-1406 and 1-1418 show an activity of at least 90% against Amaranthus retroflexus. The compounds of Nos. 1-44, 1-1406, 1-1407 and 1-1419 show an activity of at least 90% against Stellaria media.
as §2, §3

[4] = test system: Amaranthus retroflexus; assay: Pre-emergence herbicidal action
Text: as §1, §2, §3

[5] = test system: Viola tricolor; assay: Pre-emergence herbicidal action; conditions: 320 g of a.i./ha
Text: as §1, §2, §3

[6] = test system: Abutilon theophrasti; assay: Pre-emergence herbicidal action; conditions: 320 g of a.i./ha, visual scoring 3-4 weeks after treatment
Text: as §4, §2, §3

[7] = test system: Fallopia convolvulus; assay: Pre-emergence herbicidal action; conditions: 320 g of a.i./ha
Text: as §4, §2, §3

[8] = test system: Pharbitis purpureum; assay: Pre-emergence herbicidal action; conditions: 320 g of a.i./ha
Text: as §4, §2, §3

[9] = test system: Xanthium strumarium; assay: Pre-emergence herbicidal action; conditions: 320 g of a.i./ha
Text: as §4, §2, §3

[10] = test system: Matricaria inodora; assay: Post-emergence herbicidal action; conditions: Tripleurospermum inodorum, 80 g of a.i./ha, read-out: Herbicidal activity in % against MATIN
Protocol: (§5) Seeds of mono- and dicotyledonous harmful plants are placed in sandy loam in cardboard pots, covered with soil and grown in the greenhouse under good growth conditions. Two to three weeks after sowing, the test plants are treated at the three-leaf stage. The compounds according to the invention, which are formulated as wettable powders or as emulsion concentrates, are sprayed at an application rate of 600 to 800 l of water/ha (converted) in a dosage of 80 grams per hectare onto the surface of the green plant parts. The visual scoring of the damage to the harmful plants is carried out 3-4 weeks after the treatment. Here, the compounds of Nos. 1-39, 1-40, 1-1382 and 1-2091 show an activity of at least 90% against Echinochloa crus galli. The compounds of Nos. 1-3, 1-44 and 1-2091 shown an activity of at least 90% against Abutilon theophrasti. The compounds of Nos. 1-39, 1-40 and 1-1382 show an activity of at least 90% against Veronica persica. The compounds of Nos. 1-3, 1-38, 1-39, 1-1406 and 1-1407 show an activity of at least 90% against Stellaria media.
as §2, §3

[11] = test system: Stellaria media; assay: Post-emergence herbicidal action; conditions: Stellaria media, 80 g of a.i./ha, visual scoring 3-4 weeks after treatment, read-out: Herbicidal activity in % against STEME
Protocol: as §5, §2, §3

[12] = test system: Veronica persica; assay: Post-emergence herbicidal action; conditions: read-out: Herbicidal activity in % against VERPE; for pest or weed control at 80 g/ha: 80 g of a.i./ha, visual scoring 3-4 weeks after treatment; for pest or weed control at 20 g/ha: 20 g of a.i./ha
Protocol: as §5, §2, §3

[13] = test system: Xanthium strumarium; assay: Post-emergence herbicidal action; conditions: 80 g of a.i./ha, read-out: Herbicidal activity in % against XANST
Protocol: as §5, §2, §3

[14] = test system: Galium aparine; assay: Post-emergence herbicidal action
Protocol: as §5, with “The compounds according to the invention, which are formulated as wettable powders or as emulsion concentrates, are sprayed at an application rate of 600 to 800 l of water/ha (converted) in a dosage of 80 grams per hectare onto the surface of the green plant parts.” left out
as §2, §3

[15] = test system: Viola tricolor; assay: Post-emergence herbicidal action; conditions: 20 g of a.i./ha, read-out: Herbicidal activity in % against VIOTR
Protocol: as §5, §2, §3

[16] = test system: Triticum aestivum (wheat); assay: Post-emergence damage of crop plants; conditions: 20 g of a.i./ha, crop plant wheat
Protocol: as §5, with “The compounds according to the invention, which are formulated as wettable powders or as emulsion concentrates, are sprayed at an application rate of 600 to 800 l of water/ha (converted) in a dosage of 80 grams per hectare onto the surface of the green plant parts.” left out
as §2, §3

[17] = test system: Zea mays (corn); assay: Post-emergence damage of crop plants; conditions: 20 g of a.i./ha, crop plant corn
Protocol: as §5, with “The compounds according to the invention, which are formulated as wettable powders or as emulsion concentrates, are sprayed at an application rate of 600 to 800 l of water/ha (converted) in a dosage of 80 grams per hectare onto the surface of the green plant parts.” left out
as §2, §3

[18] = 320 g of a.i./ha, visual scoring 3-4 weeks after treatment

COCCSc1c(Cl)ccc(C(=O)c2c(C3CC3)nn(C)c2O)c1C [drawing 17]
Herbicidal activity in % against STEME [1]: 90% | Herbicidal activity in % against VERPE [2]: 90% | pest or weed control at 80 g/ha ([3]; 80 g of a.i./ha): 60%

CCSc1c(S(C)(=O)=O)ccc(C(=O)c2c(C3CC3)nn(C)c2O)c1Cl [drawing 24]
Herbicidal activity in % against AMARE [4, 18]: 90% | Herbicidal activity in % against VIOTR [5]: 50% | Herbicidal activity in % against ABUTH [6]: 70% | Herbicidal activity in % against POLCO [7]: 0% | pest or weed control at 320 g/ha [3]: 0%

COCCS(=O)(=O)c1c(S(C)(=O)=O)ccc(C(=O)c2c(C3CC3)nn(C)c2O)c1C [drawing 13]
Herbicidal activity in % against POLCO [7]: 60% | Herbicidal activity in % against PHBPU [8]: 60% | Herbicidal activity in % against XANST [9]: 70%

Cc1c(C(=O)c2c(C3CC3)nn(C)c2O)ccc(Cl)c1SCC1CC1 [drawing 43]
Herbicidal activity in % against AMARE ([4]; 80 g of a.i./ha): 80% | Herbicidal activity in % against STEME [1]: 90% | Herbicidal activity in % against VERPE [2]: 70%

Cn1nc(C2CC2)c(C(=O)c2ccc(Cl)c(S(=O)(=O)CC3CC3)c2Cl)c1O [drawing 57]
pest or weed control at 80 g/ha [10]: 50% | pest or weed control at 80 g/ha [11]: 100% | pest or weed control at 80 g/ha [12]: 90% | pest or weed control at 80 g/ha [13]: 90% | Herbicidal activity in % against GALAP ([14]; 80 g of a.i./ha): 70%

Cn1nc(C2CC2)c(C(=O)c2ccc(Cl)c(S(C)(=O)=O)c2Cl)c1O [drawing 58, reference compound]
pest or weed control at 80 g/ha [10]: 0% | pest or weed control at 80 g/ha [11]: 80% | pest or weed control at 80 g/ha [12]: 60% | pest or weed control at 80 g/ha [13]: 70% | Herbicidal activity in % against GALAP ([14]; 80 g of a.i./ha): 40%

CSc1c(S(C)(=O)=O)ccc(C(=O)c2c(C3CC3)nn(C)c2O)c1Cl [drawing 26]
Herbicidal activity in % against AMARE [4, 18]: 90% | Herbicidal activity in % against VIOTR [5]: 50% | Herbicidal activity in % against ABUTH [6]: 60% | Herbicidal activity in % against POLCO [7]: 40% | pest or weed control at 320 g/ha [3]: 0%

CCS(=O)(=O)c1c(S(C)(=O)=O)ccc(C(=O)c2c(C3CC3)nn(C)c2O)c1C [drawing 36, reference compound]
pest or weed control at 20 g/ha [12]: 20% | pest or weed control at 20 g/ha [15]: 20% | Herbicidal activity in % against GALAP ([14]; 20 g of a.i./ha): 20% | Damage to TRZAS [16]: 80 | Damage to ZEAMX [17]: 10

COCCS(=O)(=O)c1c(S(C)(=O)=O)ccc(C(=O)c2c(C3CC3)nn(C)c2O)c1C [drawing 35]
pest or weed control at 20 g/ha [12]: 90% | pest or weed control at 20 g/ha [15]: 70% | Herbicidal activity in % against GALAP ([14]; 20 g of a.i./ha): 50% | Damage to TRZAS [16]: 0 | Damage to ZEAMX [17]: 0

Cc1c(C(=O)c2c(C3CC3)nn(C)c2O)ccc(S(C)(=O)=O)c1S(=O)(=O)CC1CC1 [drawing 15]
Herbicidal activity in % against POLCO [7]: 50% | Herbicidal activity in % against PHBPU [8]: 50% | Herbicidal activity in % against XANST [9]: 60%
